For assay [1], the system named is HCV genotype 1b (Con1) replicon in HUH-7 cells. Briefly: HCV replicon luciferase reporter assay, genotype 1b. The class given is cell-based. Conditions: Hepatitis C virus, Huh-7, 72 h, HCV genotype 1b replicon luciferase assay, 3 days incubation. In outline:
(§1)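 Replicon inhibition for both genotypes was measured as Renilla luciferase signal (EnduRen, 7.5 μM final, 2 h) after 3-day, 37° C exposure of replicon-bearing HUH-7 cells in 4% FCS DMEM, 0.5% DMSO. The 1b construct carries S1179I; the 1a H77 construct carries P1496L and S2204I. Twenty-point, 3-fold dilutions were fitted four-parametrically for EC50, and CC50 was taken from multiplexed Cell Titer-Blue.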
Background: Replicon systems follow genome replication, usually without infectious particles.

Assay [2] has as its system HCV genotype 1a (H77 strain) replicon in HUH-7 cells. Put plainly: HCV replicon luciferase reporter assay, genotype 1a. To be noted: Hepatitis C virus, Huh-7, 72 h, HCV genotype 1a replicon luciferase assay, 3 days incubation. In kind it is cell-based. In outline: as §1
The mark [3] stands for this setting: range class, read-out: LE_1b (EC50, range).
Where [4] appears, read: range class, read-out: LE_1a (EC50, range).

Read-outs that look alike come from different tables or passages of the source. Some results are limits rather than exact numbers.

The EC50 is the concentration giving half of the maximal effect. On to `C[C@@H]1CCC(O)C[C@@H]2C[C@@]2(C(=O)NS(=O)(=O)C2(C)CC2)NC(=O)[C@@H]2C[C@@H](Oc3ncc(OC4CC4)c4ccccc34)CN2C(=O)[C@@H](NC(=O)OC(C)(C)C(F)(F)F)[C@H](C)C1` (stereo partly drawn) [Compound 2001, 1,1,1-trifluoro-2-methylpropan-2-yl ((2R,6S,7R,9R,13aS,14aR,16aS)-2-((4-cyclopropoxyisoquinolin-1-yl)oxy)-12-hydroxy-7,9-dimethyl-14a-(((1-methylcyclopropyl)sulfonyl)carbamoyl)-5,16-dioxooctadecahydrocyclopropa[e]pyrrolo[1,2-a][1,4]diazacyclopentadecin-6-yl)carbamate], for which the EC50 in assay [1] (setting [3]) and in assay [2] (setting [4]) was 4.82 to 103 nM each time.
Turning to `C[C@@H]1CCCC(O)[C@@H]2C[C@@]2(C(=O)NS(=O)(=O)C2(C)CC2)NC(=O)[C@@H]2C[C@@H](Oc3ncc(OC4CC4)c4ccccc34)CN2C(=O)[C@@H](NC(=O)OC(C)(C)C(F)(F)F)[C@H](C)C1` (some centres unmarked) [Compound 2002], the EC50 in assay [1] (setting [3]) and in assay [2] (setting [4]) was 4.82 to 103 nM throughout.
As to `C[C@@H]1CC/C=C\[C@@H]2C[C@@]2(C(=O)NS(=O)(=O)C2(C)CC2)NC(=O)[C@@H]2C[C@@H](Oc3nccc4cc(OCC(=O)O)ccc34)CN2C(=O)[C@@H](NC(=O)OC(C)(C)C)[C@H](C)C1` [Compound 2003, 2-((1-(((2R,6S,7R,9R,13aS,14aR,16aS,Z)-6-((tert-butoxycarbonyl)amino)-7,9-dimethyl-14a-(((1-methylcyclopropyl)sulfonyl)carbamoyl)-5,16-dioxo-1,2,3,5,6,7,8,9,10,11,13a,14,14a,15,16,16a-hexadecahydrocyclopropa[e]pyrrolo[1,2-a][1,4]diazacyclopentadecin-2-yl)oxy)isoquinolin-6-yl)oxy)acetic acid], the EC50 is more than 87.4 nM in assay [1] (setting [3]), 158 nM in assay [1] (read-out: LE_1b (EC50)), more than 87.4 nM in assay [2] (setting [4]) and 330 nM in assay [2] (read-out: LE_1a (EC50)).
With `COc1ccc2c(O[C@@H]3C[C@H]4C(=O)N[C@]5(C(=O)NS(=O)(=O)C6(C)CC6)C[C@H]5/C=C\CC[C@H](C)C[C@@H](C)[C@H](NC(=O)OC(C)(C)C)C(=O)N4C3)nc(N(C)C)nc2c1` [Compound 3001, tert-butyl ((2R,6S,7R,9S,13aS,14aR,16aS,Z)-2-((2-(dimethylamino)-7-methoxyquinazolin-4-yl)oxy)-7,9-dimethyl-14a-(((1-methylcyclopropyl)sulfonyl)carbamoyl)-5,16-dioxo-1,2,3,5,6,7,8,9,10,11,13a,14,14a,15,16,16a-hexadecahydrocyclopropa[e]pyrrolo[1,2-a][1,4]diazacyclopentadecin-6-yl)carbamate], the half-maximal effective concentration (EC50) in assay [1] (setting [3]) and in assay [2] (setting [4]) was less than 5.46 nM throughout.
Consider `COc1ccc2c(O[C@@H]3C[C@H]4C(=O)N[C@]5(C(=O)NS(=O)(=O)C6(C)CC6)C[C@H]5/C=C\CC[C@@H](C)C[C@@H](C)[C@H](NC(=O)OC(C)(C)C)C(=O)N4C3)nc(N(C)C)nc2c1` [Compound 3002, tert-butyl ((2R,6S,7R,9R,13aS,14aR,16aS,Z)-2-((2-(dimethylamino)-7-methoxyquinazolin-4-yl)oxy)-7,9-dimethyl-14a-(((1-methylcyclopropyl)sulfonyl)carbamoyl)-5,16-dioxo-1,2,3,5,6,7,8,9,10,11,13a,14,14a,15,16,16a-hexadecahydrocyclopropa[e]pyrrolo[1,2-a][1,4]diazacyclopentadecin-6-yl)carbamate], for which the EC50 in assay [1] (setting [3]) and in assay [2] (setting [4]) was less than 5.46 nM in each case.
`COc1ccc2c(O[C@@H]3C[C@H]4C(=O)N[C@]5(C(=O)NS(=O)(=O)C6(C)CC6)C[C@H]5/C=C\CC[C@H](C)C[C@@H](C)[C@H](NC(=O)OC(C)(C)C(F)(F)F)C(=O)N4C3)nc(N(C)C)nc2c1` [Compound 3003, 1,1,1-trifluoro-2-methylpropan-2-yl((2R,6S,7R,9S,13aS,14aR,16aS,Z)-2-((2-(dimethylamino)-7-methoxyquinazolin-4-yl)oxy)-7,9-dimethyl-14a-(((1-methylcyclopropyl)sulfonyl)carbamoyl)-5,16-dioxo-1,2,3,5,6,7,8,9,10,11,13a,14,14a,15,16,16a-hexadecahydrocyclopropa[e]pyrrolo[1,2-a][1,4]diazacyclopentadecin-6-yl)carbamate]: the EC50 in assay [1] (setting [3]) and in assay [2] (setting [4]) was less than 5.46 nM in each case.
With `COc1ccc2c(O[C@@H]3C[C@H]4C(=O)N[C@]5(C(=O)NS(=O)(=O)C6(C)CC6)C[C@H]5/C=C\CC[C@@H](C)C[C@@H](C)[C@H](NC(=O)OC(C)(C)C(F)(F)F)C(=O)N4C3)nc(N(C)C)nc2c1` [Compound 3004, 1,1,1-trifluoro-2-methylpropan-2-yl((2R,6S,7R,9R,13aS,14aR,16aS,Z)-2-((2-(dimethylamino)-7-methoxyquinazolin-4-yl)oxy)-7,9-dimethyl-14a-(((1-methylcyclopropyl)sulfonyl)carbamoyl)-5,16-dioxo-1,2,3,5,6,7,8,9,10,11,13a,14,14a,15,16,16a-hexadecahydrocyclopropa[e]pyrrolo[1,2-a][1,4]diazacyclopentadecin-6-yl)carbamate], the EC50 in assay [1] (setting [3]) and in assay [2] (setting [4]) was less than 5.46 nM throughout.
Consider `COc1ccc2c(O[C@@H]3C[C@H]4C(=O)N[C@]5(C(=O)NS(=O)(=O)C6(CF)CC6)C[C@H]5/C=C\CC[C@H](C)C[C@@H](C)[C@H](NC(=O)OC(C)(C)C)C(=O)N4C3)nc(N(C)C)nc2c1` [Compound 3005, tert-butyl ((2R,6S,7R,9S,13aS,14aR,16aS,Z)-2-((2-(dimethylamino)-7-methoxyquinazolin-4-yl)oxy)-14a-(((1-(fluoromethyl)cyclopropyl)sulfonyl)carbamoyl)-7,9-dimethyl-5,16-dioxo-1,2,3,5,6,7,8,9,10,11,13a,14,14a,15,16,16a-hexadecahydrocyclopropa[e]pyrrolo[1,2-a][1,4]diazacyclopentadecin-6-yl)carbamate], for which the concentration giving a half-maximal response (EC50) in assay [1] (setting [3]) and in assay [2] (setting [4]) was 4.82 to 103 nM throughout.
Regarding `COc1ccc2c(O[C@@H]3C[C@H]4C(=O)N[C@]5(C(=O)NS(=O)(=O)C6(CF)CC6)C[C@H]5/C=C\CC[C@@H](C)C[C@@H](C)[C@H](NC(=O)OC(C)(C)C)C(=O)N4C3)nc(N(C)C)nc2c1` [Compound 3006, tert-butyl ((2R,6S,7R,9R,13aS,14aR,16aS,Z)-2-((2-(dimethylamino)-7-methoxyquinazolin-4-yl)oxy)-14a-(((1-(fluoromethyl)cyclopropyl)sulfonyl)carbamoyl)-7,9-dimethyl-5,16-dioxo-1,2,3,5,6,7,8,9,10,11,13a,14,14a,15,16,16a-hexadecahydrocyclopropa[e]pyrrolo[1,2-a][1,4]diazacyclopentadecin-6-yl)carbamate], the EC50 in assay [1] (setting [3]) and in assay [2] (setting [4]) was less than 5.46 nM each time.
`COc1ccc2c(O[C@@H]3C[C@H]4C(=O)N[C@]5(C(=O)NS(=O)(=O)C6(C)CC6)C[C@H]5/C=C\CC[C@H](C)C[C@@H](C)[C@H](NC(=O)OC(C)(C)C)C(=O)N4C3)nc(-c3ccc(OC(C)C)cc3)nc2c1` [Compound 3007, tert-butyl ((2R,6S,7R,9S,13aS,14aR,16aS,Z)-2-((2-(4-isopropoxyphenyl)-7-methoxyquinazolin-4-yl)oxy)-7,9-dimethyl-14a-(((1-methylcyclopropyl)sulfonyl)carbamoyl)-5,16-dioxo-1,2,3,5,6,7,8,9,10,11,13a,14,14a,15,16,16a-hexadecahydrocyclopropa[e]pyrrolo[1,2-a][1,4]diazacyclopentadecin-6-yl)carbamate]: the EC50 in assay [1] (setting [3]) and in assay [2] (setting [4]) was less than 5.46 nM throughout.
For the compound `COc1ccc2c(O[C@@H]3C[C@H]4C(=O)N[C@]5(C(=O)NS(=O)(=O)C6(C)CC6)C[C@H]5/C=C\CC[C@@H](C)C[C@@H](C)[C@H](NC(=O)OC(C)(C)C)C(=O)N4C3)nc(-c3ccc(OC(C)C)cc3)nc2c1` [Compound 3008, tert-butyl ((2R,6S,7R,9R,13aS,14aR,16aS,Z)-2-((2-(4-isopropoxyphenyl)-7-methoxyquinazolin-4-yl)oxy)-7,9-dimethyl-14a-(((1-methylcyclopropyl)sulfonyl)carbamoyl)-5,16-dioxo-1,2,3,5,6,7,8,9,10,11,13a,14,14a,15,16,16a-hexadecahydrocyclopropa[e]pyrrolo[1,2-a][1,4]diazacyclopentadecin-6-yl)carbamate], the half-maximal effective concentration (EC50) in assay [1] (setting [3]) and in assay [2] (setting [4]) was less than 5.46 nM in each case.
Consider `COc1ccc2c(O[C@@H]3C[C@H]4C(=O)N[C@]5(C(=O)NS(=O)(=O)C6(CF)CC6)C[C@H]5/C=C\CC[C@H](C)C[C@@H](C)[C@H](NC(=O)OC(C)(C)C(F)(F)F)C(=O)N4C3)nc(N(C)C)nc2c1` [Compound 3009, 1,1,1-trifluoro-2-methylpropan-2-yl((2R,6S,7R,9S,13aS,14aR,16aS,Z)-2-((2-(dimethylamino)-7-methoxyquinazolin-4-yl)oxy)-14a-(((1-(fluoromethyl)cyclopropyl)sulfonyl)carbamoyl)-7,9-dimethyl-5,16-dioxo-1,2,3,5,6,7,8,9,10,11,13a,14,14a,15,16,16a-hexadecahydrocyclopropa[e]pyrrolo[1,2-a][1,4]diazacyclopentadecin-6-yl)carbamate], for which the concentration giving a half-maximal response (EC50) in assay [1] (setting [3]) and in assay [2] (setting [4]) was 4.82 to 103 nM each time.

Source of the values: US9499550B2 (BRISTOL-MYERS SQUIBB COMPANY, priority 2012, dated 2016).
